Literature values as cited in patent US6475478B2, “Adsorbent, adsorbing and removing process and adsorber for endogenous cannabinoid” (Kaneka Corporation, priority 2000, dated 2002).

Details: octanol-water system; compound fixed on the carrier

Structure (SMILES)	log P
CCCCCCCCCCN [n-decyl amine]	4.07
CCCCN [n-butyl amine]	0.97
